Results reported in patent publication US20260130928A1, “COMBINATION OF AKR1C3 ACTIVATED ANTICANCER PRODRUG COMPOUND AND ANALGESIC DRUG FOR TREATING CANCER PATIENTS ACCOMPANIED BY PAIN” (ASCENTAWITS PHARMACEUTICALS, LTD., priority 2022, published 2026).
Read-outs that look alike come from different tables or passages of the source.

What was measured:
H460 cell line = assay: In vitro cell proliferation inhibition with the drug combination (CTG method); assay type: cell-based, human; conditions: combined with AST-3424
Protocol: • a) H460 cells (human non-small lung cancer cells, AKR1C3 enzyme highly expressed) were cultured in RPMI-1640 medium, added with 10% FBS and 1% double antibody, and placed at 37° C. and 5% CO2 for culturing.
• a) The cells were routinely cultured until the cell saturation was 80%-90%, and when the required quantity was reached, the cells were collected. • b) The cells were resuspended with the corresponding medium and cell counts were performed to prepare a cell suspension with appropriate density. • c) The cell suspension was added to a 96-well plate with 100 μL per well, and the cell density was 2,000 cells per well. • d) The cells were incubated overnight in an incubator at 37° C. with 5% CO2. 1.1.3 Treating Cells with Compound (72 Hours)
AST-3424 alone: after 24 hours of cell seeding, AST-3424 was administered alone. Specifically, each well was supplemented with 99 μL of growth medium, and then added with 1 μL of the prepared AST-3424 solution to form different concentrations of AST-3424. The plate was shaken gently to ensure uniform mixing, and placed in an incubator at 37° C. with 5% CO2.
The cell plates were placed in the incubator for 72 hours.
1.1.4 Treating Cells with Compound (2 Hours) • a) Administrating single drug: after 24 hours of cell seeding, AST-3424 was administered alone. Specifically, each well was supplemented with 99 μL of growth medium, and then added with 1 μL of the prepared AST-3424 solution to form different concentrations of AST-3424. The plate was shaken gently to ensure uniform mixing, and placed in the incubator for 2 hours. […] The plate was shaken gently to ensure uniform mixing. After the plate was placed in the incubator for 2 hours, 1 μL of the prepared AST-3424 solution was added to form different concentrations of AST-3424. The plate was shaken gently to ensure uniform mixing, and placed in the incubator at 37° C. with 5% CO2 for another 2 hours. Then, the supernatant was discarded, and the remainder was washed twice with growth medium and added with 200 μL of fresh medium.
1.1.6 Detecting with CTG Method • a) The cell plate to be tested was placed at room temperature to equilibrium for 30 minutes, and 100 μL of culture medium was discarded from each well. • b) 25 μL CTG reagent (CelltiterGlo kit) was added to each well. The plate was placed on a fast shaker to shake for 2 minutes, and then placed at room temperature away from light for 30 minutes. • c) The chemiluminescent signal value was read with multifunctional microplate reader at reading time of 1000 ms.
IC50 was calculated with GraphPad Prism 5 software, and the IC50 (half maximal inhibitory concentration) of the compound was obtained using the following nonlinear fitting formula: […]

AKR1C3 = conditions: reported in literature; cited from earlier work
clinical = conditions: human, in vivo
[1] = cited from earlier work
[2] = system: human lung cancer NCI-H460; assay: Pharmacodynamics in subcutaneous xenograft model of human lung cancer NCI-H460 (tumor volume, TGI); assay type: in vivo, BALB/c nude mice
Protocol: Measures of pharmacodynamics of AST-3424 monotherapy and combination therapy with Celecoxib were performed in a subcutaneous xenograft model of human lung cancer NCI-H460 established by using female BALB/c nude mice.
After the inoculation of tumor cell, tumor growth was routinely monitored, and tumor volume and mouse weight were measured. Evaluation of therapeutic efficiency was based on the relative tumor growth inhibition TGI (%). The specific results are shown in Table 3 and FIG. 3, and the Pharmacodynamics analysis data on Day 30 after inoculation (at the end of drug administration) are particularly given in Table 4.

[3] = read-out: Cmax converted to the molar concentration; celecoxib single dosage (200 mg) in healthy subjects
[4] = Body weight / tolerance of mice in the human lung cancer NCI-H460 model
Protocol: BALB/c nude mice were subcutaneously inoculated with human lung cancer NCI-H460 cells to establish the subcutaneous transplant tumor model of human lung cancer. The experiment was assigned to seven groups, with 5 mice in each group: the test drug Celecoxib 50 mg/kg and 100 mg/kg groups, the AST-3424 2.5 mg/kg group, and different combination therapy groups of Celecoxib 50 mg/kg or 100 mg/kg and AST-3424 2.5 mg/kg, and the 0.5% sodium carboxymethylcellulose vehicle control group. […] The AST-3424 2.5 mg/kg group was administered by tail vein injection once a week for a total of three weeks, and observed for 7 days. In the combination therapy groups of Celecoxib 50 mg/kg or 100 mg/kg and AST-3424 2.5 mg/kg, Celecoxib was administered by gavage once a day for a total of 15 days, and AST-3424 was administered by tail vein injection once a week for a total of three weeks, and observed for 7 days.

[5] = Group 2: Celecoxib 50 mg/kg QD×15 p.o., Day 30 after inoculation
[6] = Group 3: Celecoxib 100 mg/kg QD×15 p.o., Day 30 after inoculation
[7] = Group 2: Celecoxib 50 mg/kg QD×15 p.o., Day 37 after the inoculation of tumor cell
[8] = Group 3: Celecoxib 100 mg/kg QD×15 p.o., Day 37 after the inoculation of tumor cell

For CC(C)Cc1ccc(C(C)C(=O)O)cc1 (centres unmarked) [Ibuprofen], the “effect of the combination on the cell proliferation inhibitory activity of AST-3424” value (H460 cell line) is given as “almost no effect”, the AKR1C3 inhibitory activity (AKR1C3) is given as “have AKR1C3 inhibitory activity” and the Cmax (clinical) is given as 94 µM. For the same compound, the Cmax ([1]; ibuprofen reference preparation, single dose, fasting, healthy Chinese subjects) was 19.4 µg/mL.

In the case of Cc1ccc(-c2cc(C(F)(F)F)nn2-c2ccc(S(N)(=O)=O)cc2)cc1 [Celecoxib], the “Tumor volume (x ± S)” value ([2]; Group 2: Celecoxib 50 mg/kg QD×15 p.o., Day 9 after cell inoculation) is reported as 145.68 ± 12.36 mm^3, the “Tumor volume (x ± S)” value ([2]; Group 2: Celecoxib 50 mg/kg QD×15 p.o., Day 12 after cell inoculation) is reported as 162.55 ± 9.74 mm^3 and the “Tumor volume (x ± S)” value ([2]; Group 2: Celecoxib 50 mg/kg QD×15 p.o., Day 16 after cell inoculation) is reported as 175.22 ± 11.61 mm^3. For the same compound, the “Tumor volume (x ± S)” value ([2]; Group 2: Celecoxib 50 mg/kg QD×15 p.o., Day 19 after cell inoculation) was 214.83 ± 26.19 mm^3, the “Tumor volume (x ± S)” value ([2]; Group 2: Celecoxib 50 mg/kg QD×15 p.o., Day 23 after cell inoculation) was 361.15 ± 68.57 mm^3 and the “Tumor volume (x ± S)” value ([2]; Group 2: Celecoxib 50 mg/kg QD×15 p.o., Day 26 after cell inoculation) was 471.39 ± 90.94 mm^3. The “Tumor volume (x ± S)” value ([2]; Group 2: Celecoxib 50 mg/kg QD×15 p.o., Day 30 after cell inoculation) was 577.49 ± 102.95 mm^3, the “Relative tumor volume (x ± S)” value [2, 5] was 3.91 ± 0.45 and the “T/C (%)” value [2, 5] was 70.13%. For the same compound, the “TGI (%)” value [2, 5] was 29.87%, the “Tumor volume (x ± S)” value ([2]; Group 2: Celecoxib 50 mg/kg QD×15 p.o., Day 30 after inoculation, in mm³) was 577.49 ± 102.95 and the “Tumor volume (x ± S)” value ([2]; Group 2: Celecoxib 50 mg/kg QD×15 p.o., Day 33 after cell inoculation) was 655.39 ± 126.55 mm^3. The “Tumor volume (x ± S)” value ([2]; Group 2: Celecoxib 50 mg/kg QD×15 p.o., Day 37 after cell inoculation) was 1053.12 ± 274.37 mm^3, the “Tumor volume (x ± S)” value ([2]; Group 3: Celecoxib 100 mg/kg QD×15 p.o., Day 9 after cell inoculation) was 144.13 ± 11.94 mm^3 and the “Tumor volume (x ± S)” value ([2]; Group 3: Celecoxib 100 mg/kg QD×15 p.o., Day 12 after cell inoculation) was 166.97 ± 17.80 mm^3. For the same compound, the “Tumor volume (x ± S)” value ([2]; Group 3: Celecoxib 100 mg/kg QD×15 p.o., Day 16 after cell inoculation) was 233.79 ± 48.62 mm^3, the “Tumor volume (x ± S)” value ([2]; Group 3: Celecoxib 100 mg/kg QD×15 p.o., Day 19 after cell inoculation) was 331.06 ± 73.94 mm^3 and the “Tumor volume (x ± S)” value ([2]; Group 3: Celecoxib 100 mg/kg QD×15 p.o., Day 23 after cell inoculation) was 479.72 ± 117.21 mm^3. For the same compound, the “Tumor volume (x ± S)” value ([2]; Group 3: Celecoxib 100 mg/kg QD×15 p.o., Day 26 after cell inoculation) was 581.86 ± 130.92 mm^3, the “Tumor volume (x ± S)” value ([2]; Group 3: Celecoxib 100 mg/kg QD×15 p.o., Day 30 after cell inoculation) was 730.52 ± 183.64 mm^3 and the “Relative tumor volume (x ± S)” value [2, 6] was 4.86 ± 0.82. The “T/C (%)” value [2, 6] was 87.16%, the “TGI (%)” value [2, 6] was 12.84% and the “Tumor volume (x ± S)” value ([2]; Group 3: Celecoxib 100 mg/kg QD×15 p.o., Day 30 after inoculation, in mm³) was 730.52 ± 183.64. For the same compound, the “Tumor volume (x ± S)” value ([2]; Group 3: Celecoxib 100 mg/kg QD×15 p.o., Day 33 after cell inoculation) was 867.83 ± 225.15 mm^3, the “Tumor volume (x ± S)” value ([2]; Group 3: Celecoxib 100 mg/kg QD×15 p.o., Day 37 after cell inoculation) was 1459.88 ± 505.50 mm^3 and the Cmax [3] was 1.85 µM. The Cmax ([1]; celecoxib single dosage (200 mg) in healthy subjects, drug instructions) was 0.705 µg/mL, the “Mean body weight g (x ± S)” value ([4]; Group 2: Celecoxib 50 mg/kg QD×15 p.o., Day 9 after the inoculation of tumor cell) was 24.8 ± 0.5 g and the “Change of body weight (%)” value [4, 7] was 4.05%. The “Mean body weight g (x ± S)” value [4, 7] was 25.8 ± 0.4 g, the “Mean body weight g (x ± S)” value ([4]; Group 3: Celecoxib 100 mg/kg QD×15 p.o., Day 9 after the inoculation of tumor cell) was 25.2 ± 0.5 g and the “Change of body weight (%)” value [4, 8] was 2.28%. The “Mean body weight g (x ± S)” value [4, 8] was 25.8 ± 0.6 g.
